Reference: ChEMBL document CHEMBL1154822, “Synthesis and antiproliferative activity of 7-azaindirubin-3'-oxime, a 7-aza isostere of the natural indirubin pharmacophore” (J Nat Prod, 2009)

How the values were obtained:
Format in all cases: functional
[1] = test system: MCF7; test: Cytotoxicity against human MCF7 cells assessed as cell growth at 0.1 uM after 1 to 11 days by MTT assay; conditions: read-out: Activity
[2] = test system: OVCAR-4; test: Cytotoxicity against human OVCAR4 cells assessed as cell growth at 1 uM after 1 to 11 days by MTT assay; conditions: read-out: Activity
[3] = test system: K562; test: Cytotoxicity against human K562 cells assessed as cell growth at 1 mM after 1 to 11 days by MTT assay; conditions: read-out: Activity
[4] = test system: A549; test: Cytotoxicity against human A549 cells after 1 to 11 days by MTT assay
[5] = test system: MCF7; test: Cytotoxicity against human MCF7 cells after 1 to 11 days by MTT assay
[6] = test system: OVCAR-8; test: Cytotoxicity against human OVCAR8 cells after 1 to 11 days by MTT assay
[7] = test system: UO-31; test: Cytotoxicity against human UO31 cells assessed as cell growth at 100 uM after 1 to 11 days by MTT assay; conditions: read-out: Activity
[8] = test system: MDA-MB-231; test: Cytotoxicity against human MDA-MB-231 cells assessed as cell growth at 10 uM after 1 to 11 days by MTT assay; conditions: read-out: Activity
[9] = test system: T47D; test: Cytotoxicity against human T47D cells assessed as cell growth at 1 uM after 1 to 11 days by MTT assay; conditions: read-out: Activity
[10] = test system: OVCAR-4; test: Cytotoxicity against human OVCAR4 cells assessed as cell growth at 1 mM after 1 to 11 days by MTT assay; conditions: read-out: Activity
[11] = test system: MOLT-4; test: Cytotoxicity against human MOLT4 cells assessed as cell growth at 1 mM after 1 to 11 days by MTT assay; conditions: read-out: Activity
[12] = test system: ACHN; test: Cytotoxicity against human ACHN cells assessed as cell growth at 0.1 uM after 1 to 11 days by MTT assay; conditions: read-out: Activity
[13] = test system: HOP-62; test: Cytotoxicity against human HOP62 cells assessed as cell growth at 1 mM after 1 to 11 days by MTT assay; conditions: read-out: Activity
[14] = test system: SK-OV-3; test: Cytotoxicity against human SKOV3 cells assessed as cell growth at 1 uM after 1 to 11 days by MTT assay; conditions: read-out: Activity
[15] = test system: HCC 2998; test: Cytotoxicity against human HCC2998 cells assessed as cell growth at 10 uM after 1 to 11 days by MTT assay; conditions: read-out: Activity
[16] = test system: OVCAR-5; test: Cytotoxicity against human OVCAR5 cells assessed as cell growth at 100 uM after 1 to 11 days by MTT assay; conditions: read-out: Activity
[17] = test system: MDA-MB-231; test: Cytotoxicity against human MDA-MB-231 cells assessed as cell growth at 100 uM after 1 to 11 days by MTT assay; conditions: read-out: Activity
[18] = test system: MDA-MB-231; test: Cytotoxicity against human MDA-MB-231 cells assessed as cell growth at 1 uM after 1 to 11 days by MTT assay; conditions: read-out: Activity
[19] = test system: MCF7; test: Cytotoxicity against human MCF7 cells assessed as cell growth at 1 uM after 1 to 11 days by MTT assay; conditions: read-out: Activity
[20] = test system: NCI-H322M; test: Cytotoxicity against human NCI-H322M cells assessed as cell growth at 0.1 uM after 1 to 11 days by MTT assay; conditions: read-out: Activity
[21] = test system: NCI-H522; test: Cytotoxicity against human NCI-H522 cells assessed as cell growth at 100 uM after 1 to 11 days by MTT assay; conditions: read-out: Activity
[22] = test system: HCT-15; test: Cytotoxicity against human HCT15 cells assessed as cell growth at 0.1 uM after 1 to 11 days by MTT assay; conditions: read-out: Activity
[23] = test system: NCI-H522; test: Cytotoxicity against human NCI-H522 cells assessed as cell growth at 0.1 uM after 1 to 11 days by MTT assay; conditions: read-out: Activity
[24] = test system: CCRF-CEM; test: Cytotoxicity against human CCRF-CEM cells assessed as cell growth at 10 uM after 1 to 11 days by MTT assay; conditions: read-out: Activity
[25] = test system: OVCAR-5; test: Cytotoxicity against human OVCAR5 cells assessed as cell growth at 1 uM after 1 to 11 days by MTT assay; conditions: read-out: Activity
[26] = test system: UACC-257; test: Cytotoxicity against human UACC257 cells after 1 to 11 days by MTT assay
[27] = test system: SN12C; test: Cytotoxicity against human SN12C cells after 1 to 11 days by MTT assay
[28] = test system: NCI-H460; test: Cytotoxicity against human NCI-H460 cells assessed as cell growth at 0.1 uM after 1 to 11 days by MTT assay; conditions: read-out: Activity
[29] = test system: RPMI-8226; test: Cytotoxicity against human RPMI8226 cells assessed as cell growth at 10 uM after 1 to 11 days by MTT assay; conditions: read-out: Activity
[30] = test system: TK-10; test: Cytotoxicity against human TK10 cells after 1 to 11 days by MTT assay
[31] = test system: SK-MEL-5; test: Cytotoxicity against human SK-MEL-5 cells assessed as cell growth at 1 mM after 1 to 11 days by MTT assay; conditions: read-out: Activity
[32] = test system: SN12C; test: Cytotoxicity against human SN12C cells assessed as cell growth at 100 uM after 1 to 11 days by MTT assay; conditions: read-out: Activity
[33] = test system: SNB-19; test: Cytotoxicity against human SNB19 cells assessed as cell growth at 1 mM after 1 to 11 days by MTT assay; conditions: read-out: Activity
[34] = test system: HL-60(TB); test: Cytotoxicity against human HL-60(TB) cells assessed as cell growth at 10 uM after 1 to 11 days by MTT assay; conditions: read-out: Activity
[35] = test system: UACC-62; test: Cytotoxicity against human UACC62 cells assessed as cell growth at 0.1 uM after 1 to 11 days by MTT assay; conditions: read-out: Activity
[36] = test system: 786-0; test: Cytotoxicity against human 786-0 cells assessed as cell growth at 10 uM after 1 to 11 days by MTT assay; conditions: read-out: Activity
[37] = test system: CCRF-CEM; test: Cytotoxicity against human CCRF-CEM cells assessed as cell growth at 0.1 uM after 1 to 11 days by MTT assay; conditions: read-out: Activity
[38] = test system: A549; test: Cytotoxicity against human A549 cells assessed as cell growth at 0.1 uM after 1 to 11 days by MTT assay; conditions: read-out: Activity
[39] = test system: K562; test: Cytotoxicity against human K562 cells assessed as cell growth at 10 uM after 1 to 11 days by MTT assay; conditions: read-out: Activity
[40] = test system: M14; test: Cytotoxicity against human M14 cells assessed as cell growth at 100 uM after 1 to 11 days by MTT assay; conditions: read-out: Activity
[41] = test system: SK-OV-3; test: Cytotoxicity against human SKOV3 cells after 1 to 11 days by MTT assay
[42] = test system: OVCAR-4; test: Cytotoxicity against human OVCAR4 cells assessed as cell growth at 0.1 uM after 1 to 11 days by MTT assay; conditions: read-out: Activity
[43] = test system: A498; test: Cytotoxicity against human A498 cells assessed as cell growth at 1 mM after 1 to 11 days by MTT assay; conditions: read-out: Activity
[44] = test system: RXF 393; test: Cytotoxicity against human […] cells assessed as cell growth at 10 uM after 1 to 11 days by MTT assay; conditions: read-out: Activity
[45] = read-out: LC50 (the source's name)

**Q.** Which results are given for `O=C1Nc2ncccc2/C1=C1/Nc2ccccc2/C1=N\O`?
**A.** growth at 0.1 µM [1]: 98%; growth at 1 µM [2]: 97%; growth at 1000 µM [3]: 25%; GI50 [4]: 3.5 µM; TGI [4]: > 100 µM; CC50 [4, 45]: > 100 µM; GI50 [5]: 15.9 µM; TGI [5]: > 100 µM; CC50 [5, 45]: > 100 µM; GI50 [6]: > 100 µM; TGI [6]: > 100 µM; CC50 [6, 45]: > 100 µM; growth at 100 µM [7]: 3%; growth at 10 µM [8]: 76%; growth at 1 µM [9]: 86%; growth at 1000 µM [10]: 39%; growth at 1000 µM [11]: 18%; growth at 0.1 µM [12]: 102%; growth at 1000 µM [13]: 74%; growth at 1 µM [14]: 93%; growth at 10 µM [15]: 88%; growth at 100 µM [16]: 88%; growth at 100 µM [17]: 40%; growth at 1 µM [18]: 88%; growth at 1 µM [19]: 91%; growth at 0.1 µM [20]: 95%; growth at 100 µM [21]: 61%; growth at 0.1 µM [22]: 95%; growth at 0.1 µM [23]: 100%; growth at 10 µM [24]: 82%; growth at 1 µM [25]: 89%; GI50 [26]: > 100 µM; TGI [26]: > 100 µM; CC50 [26, 45]: > 100 µM; GI50 [27]: 4.98 µM; TGI [27]: > 100 µM; CC50 [27, 45]: > 100 µM; growth at 0.1 µM [28]: 110%; growth at 10 µM [29]: 68%; GI50 [30]: 9.72 µM; TGI [30]: > 100 µM; CC50 [30, 45]: > 100 µM; growth at 1000 µM [31]: 30%; growth at 100 µM [32]: 37%; growth at 1000 µM [33]: 83%; growth at 10 µM [34]: 80%; growth at 0.1 µM [35]: 94%; growth at 10 µM [36]: 114%; growth at 0.1 µM [37]: 94%; growth at 0.1 µM [38]: 102%; growth at 10 µM [39]: 66%; growth at 100 µM [40]: 46%; GI50 [41]: 1.79 µM; CC50 [41, 45]: > 100 µM; growth at 0.1 µM [42]: 94%; growth at 1000 µM [43]: 43%; growth at 10 µM [44]: 55%
